ChEMBL document CHEMBL1144005, “Orally active 1,2,4-trioxepanes: synthesis and antimalarial activity of a series of 7-arylvinyl-1,2,4-trioxepanes against multidrug-resistant Plasmodium yoelii in Swiss mice” (2008)

Legend:
Type in all cases: functional
Parameters in all cases: scale not given: the % may be the effect or the level left
Plasmodium yoelii [1] = experiment: Antimalarial activity as reduced parasitemia at day 4 against multidrug-resistant Plasmodium yoelii in Swiss mice (Mus musculus) at 96 mg/kg Intramuscular dose
Plasmodium yoelii [2] = experiment: Antimalarial activity against multidrug-resistant Plasmodium yoelii in Swiss mice (Mus musculus) as reduced parasitaemia after 4 days at 96 mg/kg peroral dose; conditions: route oral
Plasmodium yoelii [3] = experiment: Antimalarial activity against multidrug-resistant Plasmodium yoelii in Swiss mice (Mus musculus) as reduced parasitaemia after peroral 48 mg/kg dose for 4 days; conditions: route oral

Row | SMILES | Activity (Plasmodium yoelii [1]) [%] | Activity (Plasmodium yoelii [2]) [%] | Activity (Plasmodium yoelii [3]) [%]
1 | C=C(c1cccc2ccccc12)C1CCOC2(CCCCC2)OO1 (stereo not given) | 22.25 | 17.16 | –
2 | C=C(c1ccc(Cl)cc1)C1CCOC2(OO1)C1CC3CC(C1)CC2C3 (stereo not given) | 12.18 | 58.38 | –
3 | C=C(c1ccc(-c2ccccc2)cc1)C1CCOC2(CCC(=O)CC2)OO1 (stereo not given) | 100 | 98.49 | –
4 | C=C(c1ccccc1)C1CCOC2(CCC(O)CC2)OO1 (stereo not given) | 21.39 | 53.59 | –
5 | C=C(c1ccc(-c2ccccc2)cc1)C1CCOC(C)(C)OO1 (stereo not given) | 42.13 | 98.22 | –
6 | C=C(c1ccc(-c2ccccc2)cc1)C1CCOC2(CCCCC2)OO1 (stereo not given) | 24.69 | 91.36 | –
7 | C=C(c1ccc(-c2ccccc2)cc1)C1CCOC2(CCC(O)CC2)OO1 (stereo not given) | 75.47 | 84.13 | –
8 | C=C(c1ccccc1)C1CCOC(C)(C)OO1 (stereo not given) | 87.31 | 92.38 | –
9 | C=C(c1ccc(Cl)cc1)C1CCOC2(CCCCC2)OO1 (stereo not given) | 46.91 | 24.69 | –
10 | C=C(c1ccc(-c2ccccc2)cc1)C1CCOC2(CCCC2)OO1 (stereo not given) | 42.36 | 64.38 | –
11 | C=C(c1ccccc1)C1CCOC2(CCCC2)OO1 (stereo not given) | 58.71 | 18.21 | –
12 | C=C(c1ccccc1)C1CCOC2(CCC(=O)CC2)OO1 (stereo not given) | 36.6 | 72.02 | –
13 | C=C(c1cccc2ccccc12)C1CCOC2(OO1)C1CC3CC(C1)CC2C3 (stereo not given) | 11.11 | 38.27 | –
14 | C=C(c1ccccc1)C1CCOC2(CCCCC2)OO1 (stereo not given) | 9.38 | 35.8 | –
15 | C=C(c1ccc(Cl)cc1)C1CCOC(C)(C)OO1 (stereo not given) | 57.64 | 48.77 | –
16 | C=C(c1ccc(Cl)cc1)C1CCOC2(CCC(O)CC2)OO1 (stereo not given) | 11.47 | 54.59 | –
17 | C=C(c1ccc(Cl)cc1)C1CCOC2(CCCC2)OO1 (stereo not given) | 6.17 | 27.16 | –
18 | C=C(c1cccc2ccccc12)C1CCOC(C)(C)OO1 (stereo not given) | 32.1 | 70.37 | –
19 | C=C(c1ccc(Cl)cc1)C1CCOC2(CCC(=O)CC2)OO1 (stereo not given) | 100 | 23.36 | –
20 | C=C(c1ccc(-c2ccccc2)cc1)C1CCOC2(OO1)C1CC3CC(C1)CC2C3 (stereo not given) | 31.98 | 44.78 | –
21 | C=C(c1ccccc1)C1CCOC2(OO1)C1CC3CC(C1)CC2C3 (stereo not given) | 27.41 | 57.36 | –
22 | C=C(c1cccc2ccccc12)C1CCOC2(CCCC2)OO1 (stereo not given) | 19.8 | 49.75 | –
23 | CCO[C@H]1O[C@@H]2O[C@@]3(C)CC[C@H]4[C@H](C)CC[C@@H]([C@H]1C)[C@@]24OO3 [ARTEMOTIL] | – | – | 100
